Results taken from patent publication US20250018047A1, “METHODS AND COMPOSITIONS FOR TARGETED PROTEIN DEGRADATION” (Ranok Therapeutics (Hangzhou) Co. Ltd., priority 2021, published 2025).
Structures can show the parent of a compound that is named as a salt.

Tests used:
[1] = target: BA/F3-KRAS(G12D) murine pro-B cell line stably expressing KRAS(G12D) (Homo sapiens, UniProt P01116, G12D, cells depend on it); test: CellTiter-Glo cancer cell line proliferation assay, BA/F3-KRAS(G12D); type: cell-based; settings: 24 hr, read-out: BAF3 at 24 hrs, IC50
Method: The following cancer cell lines were employed: AsPC-1 human pancreatic adenocarcinoma (ATCC, #CRL-1682); A-427 human lung carcinoma (ATCC, #HTB-53); BA/F3-KRAS(G12D) murine pro-B cell line stably expressing KRAS(G12D) (Precedo, Hefei, China). Cell lines were cultured according to ATCC and recommendations. BA/F3-KRAS(G12D) cells were cultured in RPMI 1640 media with 10% fetal calf serum, 100 units/mL penicillin and […] streptomycin, and 1% glutamine.
CellTiter-Glo® Reagent Cancer Cell Line Proliferation Assays
Cells were plated in 96-well tissue culture plates at 4,000 cells/well and incubated at 37° C./5% CO2 for 24 hr in 100 μl of media. 3-fold serial dilutions of each test compound were prepared ranging from 20 μM to 1.02 nM. Cells were then treated with test compounds at various concentrations with a final concentration of 0.5% DMSO/well, and then incubated at 37° C./5% CO2 for 24 hr. 100 μl of CellTiter-Glo® Reagent (Promega Corporation, Madison, WI) was added to each well and processed according manufacturer's protocol. Results were analyzed and IC50-values were calculated in GraphPad 7 software.

[2] = tested on: AsPC-1 human pancreatic adenocarcinoma; test: CellTiter-Glo cancer cell line proliferation assay, AsPC-1; type: cell-based; settings: Homo sapiens, ASPC1, 24 hr
Procedure, shortened: (§1)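 Cells plated at 4,000/well, grown 24 h at 37 °C/5% CO2, then exposed to compound concentration series (0.5% DMSO final) for 24 h. Viability read by CellTiter-Glo luminescence; IC50 values calculated.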

KRAS(G12D)/SOS1 = target: T1, KRAS(G12D)/SOS1 (Homo sapiens, UniProt P01116, G12D); test: KRAS(G12D)/SOS1 homogeneous time-resolved fluorescence (HTRF) assay; type: binding; settings: absence of GTP, 4° C. for 3 hr
T1 construct: purchased Cisbio 63ADK000CB16PEG
Method: The test compound was mixed and incubated with reaction components, incubated in a sealed plate at 4° C. for 3 hr and fluorescence was measured using a PerkinElmer Envision plate reader.

[3] = tested on: A-427 human lung carcinoma; test: CellTiter-Glo cancer cell line proliferation assay, A-427; type: cell-based; settings: Homo sapiens, A-427, 24 hr, read-out: A427 at 24 hrs, IC50
Procedure, shortened: as §1

BA/F3-KRAS(G12D) murine pro-B cell line stably expressing KRAS(G12D), sequence (P01116 whole entry G12D): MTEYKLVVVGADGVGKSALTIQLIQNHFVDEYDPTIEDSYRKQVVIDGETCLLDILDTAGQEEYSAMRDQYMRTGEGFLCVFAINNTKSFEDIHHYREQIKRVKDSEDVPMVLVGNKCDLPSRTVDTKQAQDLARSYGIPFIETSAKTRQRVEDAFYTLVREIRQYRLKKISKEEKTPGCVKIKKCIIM
T1 sequence (P01116 1-188 isoform P01116-2 G12D): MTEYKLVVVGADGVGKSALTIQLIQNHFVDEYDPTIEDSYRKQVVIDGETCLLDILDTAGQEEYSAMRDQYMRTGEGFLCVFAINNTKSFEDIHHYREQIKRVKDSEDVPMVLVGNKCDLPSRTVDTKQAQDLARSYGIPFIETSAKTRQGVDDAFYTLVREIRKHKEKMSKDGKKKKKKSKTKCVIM

Work on `C#Cc1cccc2cccc(-c3ncc4c(N5CC6CCC(C5)N6)nc(OC[C@@H]5C[C@H](N6CCN(CC7CCN(c8ccc9c(c8)C(=O)N(C8CCC(=O)NC8=O)C9=O)CC7)CC6)CN5C)nc4c3F)c12` (stereo partly drawn) [Compound 5, 5-(4-((4-((3S,5S)-5-(((4-(3,8-diazabicyclo[3.2.1]octan-3-yl)-7-(8-ethynylnaphthalen-1-yl)-8-fluoropyrido[4,3-d]pyrimidin-2-yl)oxy)methyl)-1-methylpyrrolidin-3-yl)piperazin-1-yl)methyl)piperidin-1-yl)-2-(2,6-dioxopiperidin-3-yl)isoindoline-1,3-dione hydrochloride] yielded a GI50 [1] of 100 to 1000 nM, an IC50 [2] greater than 1000 nM and an IC50 (KRAS(G12D)/SOS1) of less than 100 nM. For the same compound, the IC50 [3] was greater than 1000 nM.

Compound `C#Cc1cccc2cccc(-c3ncc4c(N5CC6CCC(C5)N6)nc(OC[C@@H]5C[C@H](N6CCN(CC7CCN(c8cccc9c8C(=O)N(C8CCC(=O)NC8=O)C9=O)CC7)CC6)CN5C)nc4c3F)c12` (stereo partly drawn) [Compound 6, 4-(4-((4-((3S,5S)-5-(((4-(3,8-diazabicyclo[3.2.1]octan-3-yl)-7-(8-ethynylnaphthalen-1-yl)-8-fluoropyrido[4,3-d]pyrimidin-2-yl)oxy)methyl)-1-methylpyrrolidin-3-yl)piperazin-1-yl)methyl)piperidin-1-yl)-2-(2,6-dioxopiperidin-3-yl)isoindoline-1,3-dione hydrochloride] has a GI50 [1] greater than 1000 nM, an IC50 [2] greater than 1000 nM and an IC50 (KRAS(G12D)/SOS1) of less than 100 nM. The IC50 [3] was greater than 1000 nM.

`C#Cc1cccc2cccc(-c3ncc4c(N5CC6CCC(C5)N6)nc(OC[C@@H]5C[C@H](N6CCN(Cc7ccc8c(c7)C(=O)N(C7CCC(=O)NC7=O)C8=O)CC6)CN5C)nc4c3F)c12` (stereo partly drawn) [Compound 7, 5-((4-((3S,5S)-5-(((4-(3,8-diazabicyclo[3.2.1]octan-3-yl)-7-(8-ethynylnaphthalen-1-yl)-8-fluoropyrido[4,3-d]pyrimidin-2-yl)oxy)methyl)-1-methylpyrrolidin-3-yl)piperazin-1-yl)methyl)-2-(2,6-dioxopiperidin-3-yl)isoindoline-1,3-dione formate] showed a GI50 [1] greater than 1000 nM, an IC50 [2] greater than 1000 nM and an IC50 (KRAS(G12D)/SOS1) of less than 100 nM. For the same compound, the IC50 [3] was greater than 1000 nM.

In the case of `C#Cc1cccc2cccc(-c3ncc4c(N5CC6CCC(C5)N6)nc(OC[C@@H]5C[C@H](N6CCN(C(=O)C7CCN(c8ccc9c(c8)C(=O)N(C8CCC(=O)NC8=O)C9=O)CC7)CC6)CN5C)nc4c3F)c12` (stereo partly drawn) [Compound 8, 5-(4-(4-((3S,5S)-5-(((4-(3,8-diazabicyclo[3.2.1]octan-3-yl)-7-(8-ethynylnaphthalen-1-yl)-8-fluoropyrido[4,3-d]pyrimidin-2-yl)oxy)methyl)-1-methylpyrrolidin-3-yl)piperazine-1-carbonyl)piperidin-1-yl)-2-(2,6-dioxopiperidin-3-yl)isoindoline-1,3-dione hydrochloride], the GI50 [1] is reported as greater than 1000 nM, the IC50 [2] is reported as greater than 1000 nM and the IC50 (KRAS(G12D)/SOS1) is reported as less than 100 nM. For the same compound, the IC50 [3] was greater than 1000 nM.

`CN1C[C@@H](N2CCC(C(=O)N3CCN(c4ccc5c(c4)C(=O)N(C4CCC(=O)NC4=O)C5=O)CC3)CC2)C[C@H]1COc1nc(N2CC3CCC(C2)N3)c2cnc(-c3cccc4cccc(Cl)c34)c(F)c2n1` (stereo partly drawn) [Compound 9, 5-(4-(1-((3S,5S)-5-(((4-(3,8-diazabicyclo[3.2.1]octan-3-yl)-7-(8-chloronaphthalen-1-yl)-8-fluoropyrido[4,3-d]pyrimidin-2-yl)oxy)methyl)-1-methylpyrrolidin-3-yl)piperidine-4-carbonyl)piperazin-1-yl)-2-(2,6-dioxopiperidin-3-yl)isoindoline-1,3-dione hydrochloride] showed a GI50 [1] greater than 1000 nM, an IC50 [2] greater than 1000 nM and an IC50 (KRAS(G12D)/SOS1) of less than 100 nM. It also gave an IC50 [3] greater than 1000 nM.

`CN1C[C@@H](N2CCC(C(=O)Nc3ccc4c(c3)C(=O)N(C3CCC(=O)NC3=O)C4=O)CC2)C[C@H]1COc1nc(N2CC3CCC(C2)N3)c2cnc(-c3cccc4cccc(Cl)c34)c(F)c2n1` (stereo partly drawn) [Compound 10, 1-((3S,5S)-5-(((4-(3,8-diazabicyclo[3.2.1]octan-3-yl)-7-(8-chloronaphthalen-1-yl)-8-fluoropyrido[4,3-d]pyrimidin-2-yl)oxy)methyl)-1-methylpyrrolidin-3-yl)-N-(2-(2,6-dioxopiperidin-3-yl)-1,3-dioxoisoindolin-5-yl)piperidine-4-carboxamide formate] was tested, and the GI50 [1] was greater than 1000 nM, the IC50 [2] was greater than 1000 nM and the IC50 (KRAS(G12D)/SOS1) was less than 100 nM. For the same compound, the IC50 [3] was greater than 1000 nM.

With `CN1C[C@@H](N2CCC(C(=O)NCCOCCOc3ccc4c(c3)C(=O)N(C3CCC(=O)NC3=O)C4=O)CC2)C[C@H]1COc1nc(N2CC3CCC(C2)N3)c2cnc(-c3cccc4cccc(Cl)c34)c(F)c2n1` (stereo partly drawn) [Compound 11, 1-((3S,5S)-5-(((4-(3,8-diazabicyclo[3.2.1]octan-3-yl)-7-(8-chloronaphthalen-1-yl)-8-fluoropyrido[4,3-d]pyrimidin-2-yl)oxy)methyl)-1-methylpyrrolidin-3-yl)-N-(2-(2-((2-(2,6-dioxopiperidin-3-yl)-1,3-dioxoisoindolin-5-yl)oxy)ethoxy)ethyl)piperidine-4-carboxamide formate] the GI50 [1] was greater than 1000 nM, the IC50 [2] was greater than 1000 nM and the IC50 (KRAS(G12D)/SOS1) was 100 to 1000 nM. It also gave an IC50 [3] greater than 1000 nM.

Work on `CN1C[C@@H](N2CCC(C(=O)NCCOc3ccc4c(c3)C(=O)N(C3CCC(=O)NC3=O)C4=O)CC2)C[C@H]1COc1nc(N2CC3CCC(C2)N3)c2cnc(-c3cccc4cccc(Cl)c34)c(F)c2n1` (stereo partly drawn) [Compound 12, 1-((3S,5S)-5-(((4-(3,8-diazabicyclo[3.2.1]octan-3-yl)-7-(8-chloronaphthalen-1-yl)-8-fluoropyrido[4,3-d]pyrimidin-2-yl)oxy)methyl)-1-methylpyrrolidin-3-yl)-N-(2-((2-(2,6-dioxopiperidin-3-yl)-1,3-dioxoisoindolin-5-yl)oxy)ethyl)piperidine-4-carboxamide hydrochloride] yielded a GI50 [1] greater than 1000 nM, an IC50 [2] greater than 1000 nM and an IC50 (KRAS(G12D)/SOS1) of 100 to 1000 nM. It also gave an IC50 [3] greater than 1000 nM.

Compound `C#Cc1cccc2cccc(-c3ncc4c(N5CC6CCC(C5)N6)nc(OC[C@@H]5CC[C@H](CN6CCN(CC7CCN(c8ccc9c(c8)C(=O)N(C8CCC(=O)NC8=O)C9=O)CC7)CC6)N5C)nc4c3F)c12` (stereo partly drawn) [Compound 13, 5-(4-((4-(((2R,5S)-5-(((4-(3,8-diazabicyclo[3.2.1]octan-3-yl)-7-(8-ethynylnaphthalen-1-yl)-8-fluoropyrido[4,3-d]pyrimidin-2-yl)oxy)methyl)-1-methylpyrrolidin-2-yl)methyl)piperazin-1-yl)methyl)piperidin-1-yl)-2-(2,6-dioxopiperidin-3-yl)isoindoline-1,3-dione hydrochloride] has a GI50 [1] of 100 to 1000 nM, an IC50 [2] greater than 1000 nM and an IC50 (KRAS(G12D)/SOS1) of less than 100 nM. The IC50 [3] was greater than 1000 nM.

With `C#Cc1cccc2cccc(-c3ncc4c(N5CC6CCC(C5)N6)nc(OC[C@@H]5CC[C@H](CN6CCN(CC7CCN(c8cccc9c8C(=O)N(C8CCC(=O)NC8=O)C9=O)CC7)CC6)N5C)nc4c3F)c12` (stereo partly drawn) [Compound 14, 4-(4-((4-(((2R,5S)-5-(((4-(3,8-diazabicyclo[3.2.1]octan-3-yl)-7-(8-ethynylnaphthalen-1-yl)-8-fluoropyrido[4,3-d]pyrimidin-2-yl)oxy)methyl)-1-methylpyrrolidin-2-yl)methyl)piperazin-1-yl)methyl)piperidin-1-yl)-2-(2,6-dioxopiperidin-3-yl)isoindoline-1,3-dione] the GI50 [1] was 100 to 1000 nM, the IC50 [2] was 100 to 1000 nM and the IC50 (KRAS(G12D)/SOS1) was less than 100 nM. It also gave an IC50 [3] greater than 1000 nM.
